Source: PMC10320002, “In vitro antiproliferative, anti-inflammatory effects and molecular docking studies of natural compounds isolated from Sarcocephalus pobeguinii (Hua ex Pobég)” (Frontiers in Pharmacology, 2023)
pIC50: −log10 of the molar value. Where “and” joins values, the source holds several entries; their conditions need not be identical. Equal values may be shown once.

Legend:
[1] = tested on: caspase-3/-7 activity in MCF-7 cells; assay: Caspase-3/-7 luminescence assay (Caspase-Glo 3/7) in MCF-7 cells; assay type: cell-based, human; details: 2×IC50, 18 h, vs cells treated with DMSO 0.5%
Protocol: The effect of the most bioactive compounds (2), (6) and (9) were used for the analysis of caspase-3 and caspase-7 activities on MCF-7 cells by using the Caspase-Glo® 3/7 kit (Promega, Germany). In fact, MCF-7 cells were seeded at a density of 10^4 cells per well on 96-well microtiter plates, and the plates were incubated overnight at 37 °C in a 5% CO2 humidified environment. […] Thereafter, 100 µL of Caspase-Glo® 3/7 reagent was added to each well, mixed and incubated in the dark for 1 h at room temperature. The luminescence was then measured on a microplate reader (Synergy Multi-Mode Reader, BioTek, Winooski, United States of America). The caspase-3/-7 activity was expressed as fold change of cells treated with 0.5% DMSO (control).

[2] = tested on: human normal skin fibroblasts (WS1) cell lines; design: method as in Gauthier et al., 2009; details: ref Gauthier et al., 2009; cited from earlier work
[3] = tested on: human lung cancer cells A549; design: method as in Gauthier et al., 2009; Gao et al., 2016; details: ref Gauthier et al., 2009; Gao et al., 2016; cited from earlier work
[4] = tested on: cancer cells (MCF-7, HepG2, Caco-2 and A549) and non-cancerous Vero cells; assay: Time-dependent cytotoxic effect on cell growth (MTT); assay type: cell-based; details: 10 μg/mL; 12, 24 and 48 h
Protocol: The cancerous and non-cancerous cells were seeded at a density of 10^4 cells per well in 96-well microtiter plates, and they were incubated overnight at 37°C with 5% CO2 in a 5% CO2 humidified environment in order to allow the attachment of cells at the bottom of the plates. Then, the cells were exposed to increasing concentrations of compounds (100, 50, 25, 10 and 5 μg/mL) dissolved in dimethyl sulfoxide (DMSO) and further diluted in fresh culture medium. In this assay, the final concentration of DMSO in the culture medium was 0.5% used as negative control while doxorubicin hydrochloride (Pfizer, United States of America) was used as a positive control. […] After 4 h of incubation, the medium was gently removed, and the formazan crystals were solubilized in 50 µL of DMSO. The absorbance was measured at 570 nm after shaking for 1 min on a microplate reader (Synergy Multi-Mode Reader, BioTek, Winooski, United States of America).

CC1(C)CC[C@]2(C(=O)O)CC[C@]3(C)C(=CC[C@@H]4[C@@]5(C)CC[C@H](O)[C@@](C)(CO)[C@@H]5CC[C@]43C)[C@@H]2C1 [Compound 2, hederagenin]
fold change in the activation of caspase-3/-7 activity [1]: up to 2 fold
pIC50 [2]: 4.11
pIC50 [3]: 4.58 and 4.41
time-dependent cytotoxic effect on cell growth [4]: time-dependent manner

C[C@@H]1CC[C@]2(C(=O)O)CC[C@]3(C(=O)O)C(=CCC4[C@@]5(C)CC[C@H](O[C@H]6O[C@H](C)[C@@H](O)[C@H](O)[C@H]6O)C(C)(C)C5CC[C@]43C)C2[C@H]1C (stereo partly drawn) [Compound 6, quinovic acid 3-O-[α-D-quinovopyranoside]]
fold change in the activation of caspase-3/-7 activity [1]: up to 2 fold
